The source of these data is ChEMBL document CHEMBL1201862, “PubChem BioAssay data set” (2004).

The structures appear in SMILES notation.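 Five compound concentrations were applied to cells in 96-well plates for 48 hours; endpoints were derived by simple linear interpolation of the resulting dose-response curve. GI50 marks 50% less growth.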 The source made the active and inactive calls. No stated cut-off is given here; in the data, active = GI50 up to about 1.1 µM and inactive = higher. *1 amine or outer side, *2 acyl side, *3 side chain or, on linkers, in order; H or OH if unused. Where a SMILES comes first, the peptide text is derived from it. Bridges are numbered along the chain shown (N, C = ends). [ ]: non-standard residue; d: D form. The star is where a group is joined. ξ: configuration not given here. ξOrn(4,5-diOH) = O=C(C(CC(O)C(O)N[*:3])N[*:1])[*:2]; ξhTyr(βξ-OH,γξ-OH) = NC(C(=O)O)C(O)C(O)c1ccc(O)cc1; ξPro(3ξ-OH,4ξ-Me) = CC1CNC(C(=O)O)C1O; X55 = CCCCC/C=C/C/C=C\CCCCCCCC(=O)*; Hyp = O=C(O)[CH]1C[CH](O)CN1 Where only a bound is given, the exact number is not on record here.

Test in all cases: NCI anticancer screen, dose series, 48 h
Test [1] has as its system HL-60.
Test [2] deals with OVCAR-5.
Test [3] deals with HOP-92.
Test [4] relates to UACC-62.
Test [5] deals with OVCAR-4.
The subject of test [6] is U-251.
For test [7], the system named is HCT-116.
Test [8] has as its system SR.
For test [9], the system named is NCI-H460.
For test [10], the system named is LOX IMVI.
Test [11] has as its system SW-620.
For test [12], the system named is CCRF-CEM.
Test [13] has as its system ACHN.
In test [14] the test system is NCI-H23.
In test [15] the test system is MDA-N.
The subject of test [16] is HT-29.
The subject of test [17] is BT-549.
The subject of test [18] is COLO 205.
Test [19] relates to EKVX.
Test [20] concerns SK-MEL-28.

On to `CCOC(=O)/C=C(/C(=O)OCC)n1ccc(N)nc1=O`, for which the GI50 was 70.6 µM (inactive) in [1]; 47.9 µM (inactive) in [2]; 53.3 µM (inactive) in [3]; > 100 µM (inactive) in [4]; 56 µM (inactive) in [5]; > 100 µM (inactive) in [6]. The GI50 was > 100 µM (inactive) in test [7]; 89.1 µM (inactive) in test [8]; > 100 µM (inactive) in [9]; 97.7 µM (inactive) in test [10]; 72.3 µM (inactive) in test [11]; 25.5 µM (inactive) in test [12]. Also, the GI50 in test [13] was > 100 µM (inactive); in test [14], > 100 µM (inactive); in test [15], > 100 µM (inactive); in test [16], 62.1 µM (inactive); in test [17], 61.4 µM (inactive); in test [18] it was 66.1 µM (inactive). Besides, the GI50 in test [19] was 84.9 µM (inactive); in test [20], > 100 µM (inactive).
Take `CC(=O)OC1COC(n2c(-c3ccc(Cl)cc3)cc(-c3ccccc3)c(C#N)c2=S)C(OC(C)=O)C1OC(C)=O` (stereo not given): the GI50 in test [1] is 37.7 µM (inactive); in test [2], 32.7 µM (inactive); in test [3] it was 12.9 µM (inactive); in test [4], 19.1 µM (inactive); in [5], 2.92 µM (inactive); in [6], 3.78 µM (inactive). Further, the GI50 in test [7] is 5.52 µM (inactive); in test [8], 29.2 µM (inactive); in test [9], 19.1 µM (inactive); in test [10] it was 3.58 µM (inactive); in [11] it was 41.1 µM (inactive); in test [12], 31.8 µM (inactive). Moreover, the GI50 was 17.5 µM (inactive) in test [13]; 12.2 µM (inactive) in test [14]; 22.1 µM (inactive) in test [15]; 26.2 µM (inactive) in [16]; 2.06 µM (inactive) in [17]; 18.3 µM (inactive) in [18]. The GI50 in [19] is 58.5 µM (inactive); in test [20] it was > 28.9 µM (inactive).
With `CC(C)(Cc1ccccc1)Cc1cc(O)ccc1O`, the GI50 in test [1] was 2.22 µM (inactive); in test [2] it was 30.8 µM (inactive); in [3], 14.4 µM (inactive); in test [4], 23.7 µM (inactive); in test [5] it was 16.4 µM (inactive); in test [6], 15.2 µM (inactive). Also, the GI50 in [7] was 15.8 µM (inactive); in test [8], 4.63 µM (inactive); in test [9] it was 16.6 µM (inactive); in test [10] it was 13.3 µM (inactive); in test [11], 22.6 µM (inactive); in [12] it was 4.49 µM (inactive). The GI50 in test [13] is 20.8 µM (inactive); in [14] it was 14.6 µM (inactive); in test [15] it was 16.4 µM (inactive); in [16], 20.6 µM (inactive); in test [17], 16.3 µM (inactive); in test [18], 19.2 µM (inactive). Further, the GI50 was 24.9 µM (inactive) in [19] and 21.8 µM (inactive) in test [20].
In the case of `COc1cccc(C2c3cc4c(cc3OC(C)(N3CCCC3)C2C)OCO4)c1OC` (stereo not given), the GI50 is 4.91 µM (inactive) in [1]; 16 µM (inactive) in [2]; 14.3 µM (inactive) in test [3]; 16.9 µM (inactive) in test [4]; 5.18 µM (inactive) in [5]; 5.25 µM (inactive) in test [6]. For the same molecule, the GI50 in [7] was 4.3 µM (inactive); in test [8], 4.31 µM (inactive); in [9] it was 11.7 µM (inactive); in [10] it was 11.7 µM (inactive); in test [11], 6.89 µM (inactive); in [12], 4.85 µM (inactive). Moreover, the GI50 in test [13] was 3.83 µM (inactive); in test [14], 15 µM (inactive); in [15], 10.6 µM (inactive); in [16], 5.14 µM (inactive); in test [17], 6.67 µM (inactive); in test [18], 7.67 µM (inactive). In addition, the GI50 was 14.9 µM (inactive) in test [19] and 25.9 µM (inactive) in test [20].
As for `C/C=C(/C)C(=O)O[C@H]1CCN2CC=C(COC(=O)[C@@](O)([C@H](C)OC)C(C)(C)O)[C@H]12`, the GI50 in [1], in test [2], in [3], in [4], in test [5] and in test [6] was > 100 µM (inactive) in each case. Further, the GI50 is > 100 µM (inactive) in test [7]; > 100 µM (inactive) in [8]; > 10 µM (inactive) in test [9]; > 100 µM (inactive) in test [10]; > 100 µM (inactive) in [11]; > 100 µM (inactive) in [12]. Further, the GI50 in test [13], in [14], in [15], in test [16], in test [17] and in [18] was > 100 µM (inactive) throughout. In addition, the GI50 in test [19] and in test [20] was > 100 µM (inactive) throughout.
For the molecule `CC1OC(OC2C(O[C@H]3CC[C@@]4(C)C(=CC[C@H]5[C@@H]6C[C@@H]7O[C@]8(CC[C@@H](C)CO8)[C@@H](C)[C@@H]7[C@@]6(C)CC[C@@H]54)C3)OC(CO)C(OC3OC(CO)C(O)C3O)C2O)C(O)C(O)C1O` (stereo not given in full), the GI50 in [1] was 0.964 µM (active); in test [2], 0.8 µM (active); in test [3], 1.01 µM (active); in test [4] it was 0.805 µM (active); in test [5], 0.931 µM (active); in test [6], 0.619 µM (active). Besides, the GI50 is 0.851 µM (active) in [7]; 0.695 µM (active) in [8]; 0.438 µM (active) in test [9]; 0.521 µM (active) in [10]; 0.766 µM (active) in [11]; 0.16 µM (active) in [12]. The GI50 is 0.855 µM (active) in test [13]; 0.836 µM (active) in [14]; 0.752 µM (active) in test [15]; 0.805 µM (active) in [16]; 0.975 µM (active) in [17]; 0.6 µM (active) in test [18]. Besides, the results for the GI50 in test [19] and in [20] were 0.885 µM (active) and 0.605 µM (active), respectively.
`COC(=O)C(Cc1ccc2c(c1)CCCC2)Cc1cc2c(cc1C(O)OC)CCC2` (stereo not given): the GI50 in [1] is 11.8 µM (inactive); in test [2], 80.9 µM (inactive); in test [3], 18.5 µM (inactive); in test [4], > 100 µM (inactive); in test [5] it was 80 µM (inactive); in test [6] it was 49.4 µM (inactive). Besides, the GI50 in test [7] is 39.6 µM (inactive); in test [8], 38.5 µM (inactive); in test [9], 35.8 µM (inactive); in [10], 30.4 µM (inactive); in [11], 67.1 µM (inactive); in test [12], 58.9 µM (inactive). In addition, the GI50 in [13] is 67.1 µM (inactive); in test [14] it was 73.5 µM (inactive); in [15], 56.8 µM (inactive); in test [16], 27.7 µM (inactive); in test [17] it was > 100 µM (inactive); in test [18], 37.7 µM (inactive). Also, the GI50 was 39.4 µM (inactive) in [19] and 55 µM (inactive) in [20].
Turning to `COC(=O)[C@H](Cc1ccccc1)NC(=O)c1ccc(CNC(=O)/C=C/c2csc(-c3ccccc3)n2)cc1`, the GI50 in [1] is 0.275 µM (active); in test [2] it was 38.5 µM (inactive); in [3], 3.88 µM (inactive); in test [4], 14.6 µM (inactive); in test [5] it was 24 µM (inactive); in test [6], 8.11 µM (inactive). The GI50 was 5.04 µM (inactive) in test [7]; 1.11 µM (active) in [8]; 11.8 µM (inactive) in [9]; 4.91 µM (inactive) in test [10]; 7.33 µM (inactive) in test [11]; 3.89 µM (inactive) in test [12]. Also, the GI50 in [13] is 8.28 µM (inactive); in test [14] it was 13.8 µM (inactive); in test [15], 4.45 µM (inactive); in test [16] it was 7.38 µM (inactive); in [17], 29.9 µM (inactive); in test [18], 7.13 µM (inactive). Besides, the GI50 in [19] is 15.2 µM (inactive); in test [20], 3.18 µM (inactive).
Take `CCCCC/C=C/C/C=C\CCCCCCCC(=O)NC1CC(O)C(O)NC(=O)C2C(O)C(C)CN2C(=O)C(C(C)O)NC(=O)C(C(O)C(O)c2ccc(O)cc2)NC(=O)C2CC(O)CN2C(=O)C(C(C)O)NC1=O` (stereo not drawn) (X55-[ξOrn(4,5-diOH)]T[Hyp][ξhTyr(βξ-OH,γξ-OH)]T[ξPro(3ξ-OH,4ξ-Me)]; lactam 1-C; configuration not given here): the GI50 in [1], in test [2], in test [3], in test [4], in [5] and in test [6] was > 100 µM (inactive) throughout. The GI50 in [7], in [8], in test [9], in test [10], in [11] and in test [12] was > 100 µM (inactive) each time. Further, the GI50 in test [13], in [14], in [15], in test [16], in test [17] and in [18] was > 100 µM (inactive) throughout. Also, the GI50 in [19] and in test [20] was > 100 µM (inactive) each time.
